In US6593365B1, “Diflunisal esters and related compounds” (The University of Queensland, priority 1997, dated 2003):

Key:
[1] = Maximum solubility in 2% BSA Krebs-Henseleit buffer (pH 7.4); format: physicochemical; details: 25 1° C.
From the text: The intrinsic solubility of diflunisal esters is extremely low (TABLE 2). The more lipophilic the analogue, the higher the solubility of solute under these conditions.

[2] = biological target: T1, BSA (bovine serum albumin) (Bos taurus, UniProt P02769); assay: Protein binding by ultrafiltration in 2% BSA Krebs buffer; format: in vitro ADME; details: 2% BSA Krebs-Henseleit buffer pH 7.4, 37° C.; slope of Scatchard plot
T1 construct: BSA (bovine serum albumin, fraction V, Sigma); purchased Sigma; host or cells: bovine serum (fraction V)
T1 sequence (P02769 25-607): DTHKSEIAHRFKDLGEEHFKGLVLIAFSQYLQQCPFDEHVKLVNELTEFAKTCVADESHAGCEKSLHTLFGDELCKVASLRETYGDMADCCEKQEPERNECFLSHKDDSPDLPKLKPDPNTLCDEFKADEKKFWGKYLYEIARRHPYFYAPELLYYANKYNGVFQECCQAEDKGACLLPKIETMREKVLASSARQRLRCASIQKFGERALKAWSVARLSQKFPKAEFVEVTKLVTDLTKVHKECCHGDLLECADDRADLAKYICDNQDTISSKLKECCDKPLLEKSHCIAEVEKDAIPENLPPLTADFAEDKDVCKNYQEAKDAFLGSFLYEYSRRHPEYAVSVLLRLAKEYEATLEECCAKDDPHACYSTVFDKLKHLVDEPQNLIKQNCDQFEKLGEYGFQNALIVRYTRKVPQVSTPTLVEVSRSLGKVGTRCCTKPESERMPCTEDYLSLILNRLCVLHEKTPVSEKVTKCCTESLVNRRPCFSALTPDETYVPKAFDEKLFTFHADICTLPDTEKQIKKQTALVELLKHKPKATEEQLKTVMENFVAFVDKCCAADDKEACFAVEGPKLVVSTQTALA
Description: These experiments were carried out in Krebs-Henseleit buffer containing 2% w/v BSA (pH 7.4) and incubated at 37° C. for 30 minutes.
A known concentration of the ethanolic (≲1%) aspirin analogue or diflunisal ester stock solution was added to the 2% BSA Krebs solution to make final concentrations of 125 μM, 250 μM and 500 μM.
The unbound fraction (fu) of parent drug and its hydrolysis product were investigated using ultra-filtration: A 1.0 mL aliquot sample (in triplicate) was placed in a ultrafiltration tube (MPS-1, micro-partition system, Amicon) and centrifuged at 3000 g for 10 minutes. The ultra-filtrate was then assayed for parent drug and its hydrolysis product by HPLC.
To eliminate possible errors caused by hydrolysis, identical samples were placed in normal tubes and subjected to the same procedure. This control group (also in triplicate) was used to adjust for the percentage of hydrolysis in the ultra-filtrate under the experimental conditions.
The fu was determined as the ratio of the free concentration to total concentration of solutes. The binding constant (K) was determined from the slope of a Scatchard plot using following equation:
[Db]/[D]=−K[Db]vK[Pt] (3)
where [Db] is the concentration of bound drug, [D] is the concentration of drug, [Pt] is the concentration of total protein, and v is the number of independent binding sites available. This equation is plotted as the ratio [Db]/[D] versus [Db] and in this way the binding constant (K) is determined from the slope while vK[Pt] is determined from the intercept (Martin, 1983).

[3] = system: in-situ perfused rat liver; assay: In-situ rat liver perfusions, hepatic availability (Example 2); format: in vitro ADME; details: 30 mL/min, bolus
Description: The hepatic availability (Fhepatic) for the O-acyl esters of the salicylic acid and diflunisal was determined using a once through in-situ perfused rat liver preparation (Mellick et al, Unpublished Results).
Protein-free Krebs-Henseleit buffer was perfused at 30 mL/min for aspiring analogues and 2% BSA in Krebs-Henseleit buffer for diflunisal esters (since the solubilities of these latter compounds in protein-free media were very low (Hung et al, supra), 2% BSA were used to increase their solubilities). Briefly, 50 μL aliquots of a saturated solution of the particular O-acyl salicylic acid or diflunisal in Krebs-Henseleit buffer (or with 2% BSA) was injected into the liver with perfusate outflow samples collected via a fraction collector over three minutes. Aliquots (100 μL) from the outflow samples were assayed by HPLC to determine the residual concentration of presented ester and the quantity of phenolic metabolite (salicylic acid or diflunisal) issuing from the perfused liver. The HPLC assay was a modification of the method used by Mellick & Roberts 1996 (Mellick et al, 1996, unpublished results).
The hepatic availability (F) was determined from the outflow concentration versus time profiles for the esters using equation 1, with the assistance of the Moments Calculator 2.2 program for Macintosh computer developed by Robert Purves.
where Q is the perfusate flow rate and D is the dose of aspirin analogues or diflunisal esters administered. The area under the concentration-time curve (AUC) was estimated by the trapezoidal rule integration with appropriate modification for tail (Mellick et al, supra).

[4] = system: in-situ perfused rat liver; assay: In-situ rat liver perfusions, hepatic extraction (Example 4); format: in vitro ADME; details: hepatic extraction=1- hepatic availability (F)
Description: The hepatic availability (F) for the O-acyl esters of SA and DF was determined using a once through in-situ perfused rat liver preparation (Mellick and Roberts, 1996, J Pharm Pharmacol 48:738-743). Liver was perfused with protein-free Krebs-Henseleit buffer at 30 mL/min for aspirin analogues and with Krebs-Henseleit buffer containing 2% BSA for diflunisal esters studies. Since the solubilities of the diflunisal esters in protein-free media were very low, 2% BSA were used to help to solubilize these compounds. Briefly, 50 μL of a saturated solution of the particular O-acyl SA or DF in Krebs-Henseleit buffer was injected as a bolus into the portal vein cannula. Perfusate outflow samples have collected via a fraction collector over 3 min. 100 μL of these samples was assayed by HPLC to determine the residual concentration of presented ester and the quantity of phenolic metabolite (SA or DF) collected from the perfused liver. The HPLC assay was a modification of the method used by Owen et al. (1987, J Chrom B Biomed Appl 416 293-302) and Rumble et al. (1981, J Chrom 225 252-260).
The hepatic availability (F) was calculated from the ratio of the area under the first moment curve, i.e., outflow concentration time-time profile to the area under the curve for the salicylate phenolic esters, with the assistance of the Moments Calculator 2.2 program for Macintosh computer developed by Robert Purves (1994, J Pharm Sci 83:202-205).

[5] = 2% BSA in Krebs-Henseleit buffer as perfusate
[6] = protein-free Krebs-Henseleit buffer as perfusate

| Compound | Maximum solubility [1] [mM] | Maximum solubility ([1]; mean standard deviation (n=3)) [µg/mL] | Protein binding constant (K) [2] [L/mol] | Hepatic availability (F) [3, 5] | Hepatic extraction [4, 5] | Hepatic availability (F) [3, 6] | Hepatic extraction [4, 6] |
| --- | --- | --- | --- | --- | --- | --- | --- |
| CC(=O)Oc1ccc(-c2ccc(F)cc2F)cc1C(=O)O [Compound C2D, acetyldiflunisal] | 7.57 | 2200 ± 70 | 2077 | 0.21 | 0.49 | – | – |
| CCCC(=O)Oc1ccccc1C(=O)O [Compound C4SA, n-butanoylsalicylic acid] | – | – | – | – | – | 0.40 | 0.60 |
| CCCCC(=O)Oc1ccc(-c2ccc(F)cc2F)cc1C(=O)O [Compound C5D, n-pentanoyldiflunisal] | 20.90 | 6980 ± 150 | 2707 | 0.38 | 0.62 | – | – |
| CCCCCC(=O)Oc1ccc(-c2ccc(F)cc2F)cc1C(=O)O [Compound C6D, n-hexanoyldiflunisal] | 44.77 | 15580 ± 300 | 2995 | 0.38 | 0.62 | – | – |
| O=C(O)c1cc(-c2ccc(F)cc2F)ccc1O [DF, 2′,4′-difluoro-4-hydroxy-3-biphenylcarboxylic acid, reference compound] | – | – | – | – | 0.38 | – | – |
| O-acetylsalicylic acid [Compound C2SA, reference compound] | – | – | 192 | – | – | 0.85 | 0.15 |

Results, then the compound that gave them:

| Maximum solubility [1] [mM] | Maximum solubility ([1]; mean standard deviation (n=3)) [µg/mL] | Protein binding constant (K) [2] [L/mol] | Hepatic availability (F) [3, 5] | Hepatic extraction [4, 5] | Hepatic availability (F) [3, 6] | Hepatic extraction [4, 6] | Compound |
| --- | --- | --- | --- | --- | --- | --- | --- |
| 12.38 | 3960 ± 80 | 2365 | 0.34 | 0.66 | – | – | CCCC(=O)Oc1ccc(-c2ccc(F)cc2F)cc1C(=O)O [Compound C4D, n-butanoyldiflunisal] |
| – | – | 1525 | – | – | 0.26 | 0.74 | CCCCC(=O)Oc1ccccc1C(=O)O [Compound C5SA, n-pentanoylsalicylic acid] |
| – | – | 2071 | – | – | 0.02 | 0.98 | CCCCCC(=O)Oc1ccccc1C(=O)O [Compound C6SA, n-hexanoylsalicylic acid] |
